Consider 14 molecules from patent publication US12115178B2, “Acylated active agents and methods of their use for the treatment of autoimmune disorders” (Flagship Pioneering Innovations V, Inc., priority 2018, dated 2024).

What all share (format): in vitro ADME
Series [1] in a line: Assay 1. Stability in Simulated Gastric Fluid (SGF). The note with it: SGF pH 1.6 with pepsin, 1 μM, 37° C. An outline of the steps: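 Degradation rate from LC/MS of acetonitrile-quenched aliquots (T0, then regular intervals). Fresh SGF (pH 1.6 NaCl, FaSSIF powder, pepsin 0.1 mg/mL) held compound at 1 μM final, 37° C; 1 mM DMSO stock.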
Series [2] is described as follows: Assay 2. Stability in Simulated Intestinal Fluid (SIF). Particulars: SIF pH 6.7 with pancreatin, 1 μM, 37° C. An outline of the steps: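 Degradation rates came from LC/MS of acetonitrile-quenched samples drawn at intervals, starting at T0. The medium was freshly made pH 6.7 FaSSIF containing pancreatin, and test compound was present at 1 µM while being shaken at 37 °C.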

Series [3] can be described thus: Assay 3. In vitro Colonic Material Stability Assay. Particulars: colonic material slurry, anaerobic, 1 or 10 μM.

Regarding `CCCC(=O)O[C@@H]1[C@@H](OC(=O)CCC)[C@H](C)O[C@@H](OC(=O)CCc2c[nH]c3ccccc23)[C@@H]1OC(=O)CCC` [Compound 83, (2S,3R,4R,5S,6S)-4,5-bis(butanoyloxy)-2-{[3-(1H-indol-3-yl)propanoyl]oxy}-6-methyloxan-3-yl butanoate], in series [1], the “Assay 1 (SGF) (% Remaining @ 1 hour)” value is “C (>75% of the tested compound remaining)”. For the same molecule, the “Assay 2 (SIF) (% @ Remaining 4 hours)” value in series [2] was “A (<25% of the tested compound remaining)”. Moreover, in series [3], the “Assay 3 (% Remaining at 24 h)” value was “A (<25% of the tested compound remaining)”.
Turning to `CCCC(=O)O[C@H]1[C@H](OC(=O)CCC)[C@H](OC(=O)CCc2c[nH]c3ccccc23)O[C@@H](C)[C@H]1OC(=O)CCC` [Compound 84, (2S,3S,4R,5R,6S)-4,5-bis(butanoyloxy)-2-{[3-(1H-indol-3-yl)propanoyl]oxy}-6-methyloxan-3-yl butanoate], the “Assay 1 (SGF) (% Remaining @ 1 hour)” value in series [1] is listed as “C (>75% of the tested compound remaining)”. In series [2], the “Assay 2 (SIF) (% @ Remaining 4 hours)” value is given as “A (<25% of the tested compound remaining)”. Also, the “Assay 3 (% Remaining at 24 h)” value in series [3] is reported as “A (<25% of the tested compound remaining)”.
Take `CCCC(=O)OC[C@H]1O[C@@H](OC(=O)CCc2c[nH]c3ccccc23)[C@H](OC(=O)CCC)[C@@H](OC(=O)CCC)[C@@H]1OC(=O)CCC` [Compound 85, [(2R,3R,4S,5R,6S)-3,4,5-tris(butanoyloxy)-6-{[3-(1H-indol-3-yl)propanoyl]oxy}oxan-2-yl]methyl butanoate]: in series [1], the “Assay 1 (SGF) (% Remaining @ 1 hour)” value is recorded as “B (25-75% of the tested compound remaining)”. For the same molecule, in series [2], the “Assay 2 (SIF) (% @ Remaining 4 hours)” value is listed as “A (<25% of the tested compound remaining)”. Further, the “Assay 3 (% Remaining at 24 h)” value in series [3] is reported as “A (<25% of the tested compound remaining)”.
On to `CCCC(=O)OC[C@H]1O[C@H](OC(=O)CCc2c[nH]c3ccccc23)[C@H](OC(=O)CCC)[C@@H](OC(=O)CCC)[C@@H]1OC(=O)CCC` [Compound 90, [(2R,3R,4S,5R,6R)-3,4,5-tris(butanoyloxy)-6-{[3-(1H-indol-3-yl)propanoyl]oxy}oxan-2-yl]methyl butanoate], for which the “Assay 1 (SGF) (% Remaining @ 1 hour)” value in series [1] is “C (>75% of the tested compound remaining)”. In series [2], the “Assay 2 (SIF) (% @ Remaining 4 hours)” value is on record as “B (25-75% of the tested compound remaining)”. In series [3], the “Assay 3 (% Remaining at 24 h)” value is “A (<25% of the tested compound remaining)”.
On to `CCC(=O)O[C@@H]1[C@@H](OC(=O)CC)[C@H](OC(=O)/C=C/c2c[nH]c3ccccc23)OC[C@H]1OC(=O)CC` [Compound 91, (2S,3R,4S,5R)-3,4,5-tris(propanoyloxy)oxan-2-yl (2E)-3-(1H-indol-3-yl)prop-2-enoate], for which, in series [1], the “Assay 1 (SGF) (% Remaining @ 1 hour)” value was “C (>75% of the tested compound remaining)”. In addition, in series [2], the “Assay 2 (SIF) (% @ Remaining 4 hours)” value is on record as “A (<25% of the tested compound remaining)”. For the same molecule, in series [3], the “Assay 3 (% Remaining at 24 h)” value is “A (<25% of the tested compound remaining)”.
For `CCC(=O)O[C@H]1[C@H](OC(=O)/C=C/c2c[nH]c3ccccc23)OC[C@@H](OC(=O)CC)[C@H]1OC(=O)CC` [Compound 92, (2S,3R,4R,5R)-3,4,5-tris(propanoyloxy)oxan-2-yl (2E)-3-(1H-indol-3-yl)prop-2-enoate], the “Assay 1 (SGF) (% Remaining @ 1 hour)” value in series [1] was “C (>75% of the tested compound remaining)”. For the same molecule, the “Assay 2 (SIF) (% @ Remaining 4 hours)” value in series [2] is recorded as “A (<25% of the tested compound remaining)”. For the same molecule, in series [3], the “Assay 3 (% Remaining at 24 h)” value is recorded as “A (<25% of the tested compound remaining)”.
Regarding `CCC(=O)O[C@@H]1[C@@H](OC(=O)CC)[C@@H](OC(=O)/C=C/c2c[nH]c3ccccc23)OC[C@H]1OC(=O)CC` [Compound 93, (2R,3R,4S,5R)-3,4,5-tris(propanoyloxy)oxan-2-yl (2E)-3-(1H-indol-3-yl)prop-2-enoate], in series [1], the “Assay 1 (SGF) (% Remaining @ 1 hour)” value is recorded as “C (>75% of the tested compound remaining)”. Also, the “Assay 2 (SIF) (% @ Remaining 4 hours)” value in series [2] is reported as “A (<25% of the tested compound remaining)”. For the same molecule, the “Assay 3 (% Remaining at 24 h)” value in series [3] is “A (<25% of the tested compound remaining)”.
As to `CCC(=O)O[C@H]1[C@@H](OC(=O)CCc2c[nH]c3ccccc23)OC[C@@H](OC(=O)CC)[C@H]1OC(=O)CC` [Compound 94, (2R,3R,4R,5R)-3,4,5-tris(propanoyloxy)oxan-2-yl 3-(1H-indol-3-yl)propanoate], the “Assay 1 (SGF) (% Remaining @ 1 hour)” value in series [1] is “C (>75% of the tested compound remaining)”. Besides, in series [2], the “Assay 2 (SIF) (% @ Remaining 4 hours)” value is on record as “A (<25% of the tested compound remaining)”. Further, the “Assay 3 (% Remaining at 24 h)” value in series [3] is recorded as “A (<25% of the tested compound remaining)”.
For `CCCC(=O)O[C@@H]1[C@@H](OC(=O)CCC)[C@@H](OC(=O)CCc2c[nH]c3ccccc23)OC[C@H]1OC(=O)CCC` [Compound 96, (2R,3R,4S,5R)-4,5-bis(butanoyloxy)-2-{[3-(1H-indol-3-yl)propanoyl]oxy}oxan-3-yl butanoate], in series [1], the “Assay 1 (SGF) (% Remaining @ 1 hour)” value is recorded as “C (>75% of the tested compound remaining)”. For the same molecule, the “Assay 2 (SIF) (% @ Remaining 4 hours)” value in series [2] is “A (<25% of the tested compound remaining)”. Further, the “Assay 3 (% Remaining at 24 h)” value in series [3] is reported as “A (<25% of the tested compound remaining)”.
In the case of `CCC(=O)O[C@H]1[C@H](OC(=O)CCc2c[nH]c3ccccc23)OC[C@@H](OC(=O)CC)[C@H]1OC(=O)CC` [Compound 98, (2S,3R,4R,5R)-3,4,5-tris(propanoyloxy)oxan-2-yl 3-(1H-indol-3-yl)propanoate], in series [1], the “Assay 1 (SGF) (% Remaining @ 1 hour)” value is given as “B (25-75% of the tested compound remaining)”. In series [2], the “Assay 2 (SIF) (% @ Remaining 4 hours)” value is recorded as “A (<25% of the tested compound remaining)”. Further, the “Assay 3 (% Remaining at 24 h)” value in series [3] is recorded as “A (<25% of the tested compound remaining)”.
With `CCC(=O)O[C@H]1OC[C@@H](OC(=O)CC)[C@@H](OC(=O)CC)[C@H]1OC(=O)CC` [Compound 101, (2R,3R,4R,5R)-3,4,5-tris(propanoyloxy)oxan-2-yl propanoate], in series [1], the “Assay 1 (SGF) (% Remaining @ 1 hour)” value is listed as “C (>75% of the tested compound remaining)”. In addition, in series [2], the “Assay 2 (SIF) (% @ Remaining 4 hours)” value is “A (<25% of the tested compound remaining)”. Besides, in series [3], the “Assay 3 (% Remaining at 24 h)” value is on record as “A (<25% of the tested compound remaining)”.
In the case of `CCC(=O)O[C@@H]1[C@@H](OC(=O)CC)[C@H](C)O[C@@H](OC(=O)/C=C/c2c[nH]c3ccccc23)[C@@H]1OC(=O)CC` [Compound 102, (2S,3R,4R,5S,6S)-6-methyl-3,4,5-tris(propanoyloxy)oxan-2-yl (2E)-3-(1H-indol-3-yl)prop-2-enoate], the “Assay 1 (SGF) (% Remaining @ 1 hour)” value in series [1] is given as “C (>75% of the tested compound remaining)”. In series [2], the “Assay 2 (SIF) (% @ Remaining 4 hours)” value is on record as “B (25-75% of the tested compound remaining)”. In series [3], the “Assay 3 (% Remaining at 24 h)” value is “A (<25% of the tested compound remaining)”.
As to `CCC(=O)O[C@@H]1[C@@H](OC(=O)CC)[C@H](OC(=O)Cc2c[nH]c3ccccc23)OC[C@@H]1OC(=O)CC` [Compound 103, (3S,4S,5R,6S)-6-{[2-(1H-indol-3-yl)acetyl]oxy}-4,5-bis(propanoyloxy)oxan-3-yl propanoate], the “Assay 1 (SGF) (% Remaining @ 1 hour)” value in series [1] is reported as “C (>75% of the tested compound remaining)”. Further, the “Assay 2 (SIF) (% @ Remaining 4 hours)” value in series [2] is “A (<25% of the tested compound remaining)”. Further, in series [3], the “Assay 3 (% Remaining at 24 h)” value was “A (<25% of the tested compound remaining)”.
Regarding `CCC(=O)O[C@@H]1OC[C@@H](OC(=O)CC)[C@@H](OC(=O)CC)[C@H]1OC(=O)CC` [Compound 104, (2S,3R,4R,5R)-3,4,5-tris(propanoyloxy)oxan-2-yl propanoate], the “Assay 1 (SGF) (% Remaining @ 1 hour)” value in series [1] is reported as “C (>75% of the tested compound remaining)”. In addition, the “Assay 2 (SIF) (% @ Remaining 4 hours)” value in series [2] is “A (<25% of the tested compound remaining)”. For the same molecule, the “Assay 3 (% Remaining at 24 h)” value in series [3] is recorded as “A (<25% of the tested compound remaining)”.
